Measured values reported in US20220054513A1, “COMBINATION COMPOSITIONS COMPRISING A BETA-LACTAMASE INHIBITOR” (VenatoRx Pharmaceuticals, Inc., priority 2018, published 2022).

System: Acinetobacter baumannii-calcoaceticus species complex clinical isolates
Experiment: MIC of triple combinations (Compound 1, sulbactam, meropenem or cefepime), 141 clinical isolates
Assay type: cell-based
Conditions: Cmpd 1 at 4 μg/mL in combinations
Source text: For a more comprehensive assessment of the ability of test compounds to potentiate sulbactam in triple combinations with β-lactams additional MIC assays were utilized.

## CC1(C)[C@H](C(=O)O)N2C(=O)C[C@H]2S1(=O)=O [SUL, Sulbactam]
Acinetobacter, strain 1014815
  MIC: 64 µg/mL
Acinetobacter, strain 1014866
  MIC: 32 µg/mL
Acinetobacter, strain 1014878
  MIC: 32 µg/mL
Acinetobacter, strain 1014890
  MIC: 32 µg/mL
Acinetobacter, strain 1016545
  MIC: 16 µg/mL
Acinetobacter, strain 1016836
  MIC: 32 µg/mL
Acinetobacter, strain 1017679
  MIC: 32 µg/mL
Acinetobacter, strain 1018109
  MIC: 4 µg/mL
Acinetobacter, strain 1018801
  MIC: 64 µg/mL
Acinetobacter, strain 1018802
  MIC: 64 µg/mL
Acinetobacter, strain 1018804
  MIC: 32 µg/mL
Acinetobacter, strain 1018806
  MIC: 64 µg/mL
Acinetobacter, strain 1018807
  MIC: 32 µg/mL
Acinetobacter, strain 1018851
  MIC: 64 µg/mL
Acinetobacter, strain 1023034
  MIC: 16 µg/mL
Acinetobacter, strain 1023074
  MIC: 32 µg/mL
Acinetobacter, strain 1023207
  MIC: 16 µg/mL
Acinetobacter, strain 1023329
  MIC: 16 µg/mL
Acinetobacter, strain 1024119
  MIC: 32 µg/mL
Acinetobacter, strain 1024215
  MIC: 16 µg/mL
Acinetobacter, strain 1026990
  MIC: 16 µg/mL
Acinetobacter, strain 1026992
  MIC: 16 µg/mL
Acinetobacter, strain 1027234
  MIC: 8 µg/mL
Acinetobacter, strain 1027590
  MIC: 32 µg/mL
Acinetobacter, strain 1027603
  MIC: 8 µg/mL
Acinetobacter, strain 1027748
  MIC: 8 µg/mL
Acinetobacter, strain 1028193
  MIC: 64 µg/mL
Acinetobacter, strain 1029770
  MIC: 32 µg/mL
Acinetobacter, strain 1029913
  MIC: 16 µg/mL
Acinetobacter, strain 1030427
  MIC: 16 µg/mL
Acinetobacter, strain 1030928
  MIC: 64 µg/mL
Acinetobacter, strain 1030945
  MIC: 32 µg/mL
Acinetobacter, strain 1031136
  MIC: 32 µg/mL
Acinetobacter, strain 1031167
  MIC: 64 µg/mL
Acinetobacter, strain 1031177
  MIC: 16 µg/mL
Acinetobacter, strain 1031191
  MIC: 16 µg/mL
Acinetobacter, strain 1031211
  MIC: 32 µg/mL
Acinetobacter, strain 1031238
  MIC: 32 µg/mL
Acinetobacter, strain 1031566
  MIC: 32 µg/mL
Acinetobacter, strain 1032669
  MIC: 16 µg/mL
Acinetobacter, strain 1032761
  MIC: 64 µg/mL
Acinetobacter, strain 1033340
  MIC: 16 µg/mL
Acinetobacter, strain 1033979
  MIC: 64 µg/mL
Acinetobacter, strain 1034048
  MIC: 32 µg/mL
Acinetobacter, strain 1034880
  MIC: 32 µg/mL
Acinetobacter, strain 1034912
  MIC: 32 µg/mL
Acinetobacter, strain 1034913
  MIC: 32 µg/mL
Acinetobacter, strain 1034916
  MIC: 64 µg/mL
Acinetobacter, strain 1034925
  MIC: 32 µg/mL
Acinetobacter, strain 1034931
  MIC: 16 µg/mL
Acinetobacter, strain 1034951
  MIC: 32 µg/mL
Acinetobacter, strain 1034962
  MIC: 32 µg/mL
Acinetobacter, strain 1035144
  MIC: 32 µg/mL
Acinetobacter, strain 1035788
  MIC: 32 µg/mL
Acinetobacter, strain 1035794
  MIC: 64 µg/mL
Acinetobacter, strain 1035808
  MIC: 32 µg/mL
Acinetobacter, strain 1035825
  MIC: 32 µg/mL
Acinetobacter, strain 1035900
  MIC: 32 µg/mL
Acinetobacter, strain 1036023
  MIC: 64 µg/mL
Acinetobacter, strain 1036045
  MIC: 32 µg/mL
Acinetobacter, strain 1036068
  MIC: 32 µg/mL
Acinetobacter, strain 1036734
  MIC: 32 µg/mL
Acinetobacter, strain 1036768
  MIC: 32 µg/mL
Acinetobacter, strain 1036781
  MIC: 32 µg/mL
Acinetobacter, strain 1036859
  MIC: 32 µg/mL
Acinetobacter, strain 1036882
  MIC: 32 µg/mL
Acinetobacter, strain 1036921
  MIC: 64 µg/mL
Acinetobacter, strain 1037193
  MIC: 16 µg/mL
Acinetobacter, strain 1037211
  MIC: 64 µg/mL
Acinetobacter, strain 1037251
  MIC: 32 µg/mL
Acinetobacter, strain 1037256
  MIC: 16 µg/mL
Acinetobacter, strain 1037294
  MIC: 64 µg/mL
Acinetobacter, strain 1037462
  MIC: 16 µg/mL
Acinetobacter, strain 1037593
  MIC: 32 µg/mL
Acinetobacter, strain 1037618
  MIC: 64 µg/mL
Acinetobacter, strain 1037714
  MIC: 8 µg/mL
Acinetobacter, strain 1037731
  MIC: 16 µg/mL
Acinetobacter, strain 1037732
  MIC: 16 µg/mL
Acinetobacter, strain 1037738
  MIC: 16 µg/mL
Acinetobacter, strain 1037747
  MIC: 32 µg/mL
Acinetobacter, strain 1038418
  MIC: 16 µg/mL
Acinetobacter, strain 1038439
  MIC: 16 µg/mL
Acinetobacter, strain 1039502
  MIC: 64 µg/mL
Acinetobacter, strain 1039514
  MIC: 16 µg/mL
Acinetobacter, strain 1039515
  MIC: 32 µg/mL
Acinetobacter, strain 1039518
  MIC: 16 µg/mL
Acinetobacter, strain 1040900
  MIC: 8 µg/mL
Acinetobacter, strain 1040901
  MIC: 64 µg/mL
Acinetobacter, strain 1040916
  MIC: 32 µg/mL
Acinetobacter, strain 1042182
  MIC: 16 µg/mL
Strain 1002960
  MIC: 128 µg/mL
Strain 1010331
  MIC: 128 µg/mL
Strain 1010950
  MIC: 128 µg/mL
Strain 1019086
  MIC: 128 µg/mL
Strain 1023031
  MIC: 128 µg/mL
Strain 1037479
  MIC: 128 µg/mL
Strain 1040917
  MIC: 128 µg/mL
